From patent US5342947A, “Preparation of water soluble camptothecin derivatives” (Glaxo Inc., priority 1992, dated 1994)
Like-named read-outs stand apart in the source and are kept apart here. One block for each compound: values may come before it.

How the values were obtained:
topoisomerase Type I = biological target: T1, topoisomerase Type I (Bos taurus, UniProt F1MN93); assay: Cleavable Complex in vitro Assay (topoisomerase Type I inhibitory activity); assay type: biochemical
T1 sequence (F1MN93 1-767): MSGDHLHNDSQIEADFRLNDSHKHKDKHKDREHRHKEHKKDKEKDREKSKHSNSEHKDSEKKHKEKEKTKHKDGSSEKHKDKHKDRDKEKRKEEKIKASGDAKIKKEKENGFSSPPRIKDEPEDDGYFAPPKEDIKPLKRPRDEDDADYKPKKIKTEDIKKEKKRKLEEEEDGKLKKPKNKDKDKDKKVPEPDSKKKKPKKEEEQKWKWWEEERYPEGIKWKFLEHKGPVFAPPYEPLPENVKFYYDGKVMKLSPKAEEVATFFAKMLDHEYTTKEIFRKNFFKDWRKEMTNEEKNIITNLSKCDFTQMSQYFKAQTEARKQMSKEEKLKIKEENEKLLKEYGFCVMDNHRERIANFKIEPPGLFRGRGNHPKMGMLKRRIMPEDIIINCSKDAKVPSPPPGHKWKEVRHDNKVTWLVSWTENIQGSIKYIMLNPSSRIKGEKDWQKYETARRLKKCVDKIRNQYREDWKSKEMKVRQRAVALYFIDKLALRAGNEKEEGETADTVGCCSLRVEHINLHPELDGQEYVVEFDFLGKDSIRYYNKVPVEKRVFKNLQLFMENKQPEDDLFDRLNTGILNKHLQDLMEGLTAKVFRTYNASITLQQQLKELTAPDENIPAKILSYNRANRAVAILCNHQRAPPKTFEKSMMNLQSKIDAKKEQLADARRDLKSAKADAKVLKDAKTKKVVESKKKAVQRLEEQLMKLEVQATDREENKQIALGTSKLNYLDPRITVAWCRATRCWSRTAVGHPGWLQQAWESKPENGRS
From the text: This assay performed according to the method described in Hsiang, Y. et al., J. Biol. Chem., 260:14873-14878 (1985), correlates well with in vivo anti-tumor activity of topoisomerase inhibitors in animal models of cancer, e.g., camptothecin and its analogs. See Hsiang et al., Cancer Research, 49:4385-4389 (1989) and Jaxel et al., Cancer Research, 49:1465-1469 (1989).
The term "IC50 " means the concentration of a compound of formula (I) at which 50% of the DNA substrate has been captured by topoisomerase I.

[1] = in words, background; cited from earlier work
[2] = Wani et al., J. Med. Chem. 29, 2358 (1986) and 30, 2317 (1987); cited from earlier work
HT-29 human colon tumor = assay: Human Colorectal Adenocarcinoma HT-29 Xenograft in vivo Assay; set-up: species or system human tumor xenograft in female NU/NU mice; settings: for tumor wt day 50 / tumor wt day 14: s.c. twice a week for 5 weeks; for effect on tumor (stasis / regression): after 5 weeks of dosing, day 50 vs day 14, ratio 1 = stasis, <1 = regression
Experimental: Female NU/NU mice weighing 21±2 g, are used for this modified version of the test described by B. C. Giovanella, et al., Science, 246 1046 (1989). Control and test animals are injected subcutaneously in the sub-scapular region with a suspension of 10^6 viable HT-29 human colon tumor cells on day 0. Tumors are allowed to grow for 2 weeks prior to drug administration. For each drug, several doses are chosen based on its in vitro activity against topoisomerase I. Each dose level group contains 8 animals. The test compounds are prepared in either 0.1M acetate buffer, pH 5 (vehicle "a") or 87.5% phosphate buffered saline, 12.375% dimethylsulfoxide, and 0.125% Tween 80 (trademark of ICI America for polyoxyethylenesorbitan monooleate) (vehicle "b") and are administered subcutaneously twice a week for 5 weeks beginning on day 14. Doses are given on a mg/kg basis according to the mean body weight for each cage.
Tumor weight is calculated from two perpendicular caliper measurements of the tumor using the formula, tumor weight=length×width^2 […] in millimeters. For each animal, tumor weight is monitored over the course of the experiment. For each group, the results are expressed as the ratio of the mean tumor weight immediately after 5 weeks of treatment (day 50) divided by the mean tumor weight immediately before treatment (day 14). […] The criterion for antitumor activity is at least 50% inhibition of tumor growth after 5 weeks of dosing (day 50), giving a ratio of less than or equal to […].

certain solid tumors = settings: laboratory animals; cited from earlier work
leukemia (L-1210) = settings: laboratory animals; cited from earlier work
[3] = Cleavable Complex Assay, read-out: Relative IC50 (concentration at which 50% of the DNA substrate has been captured by topoisomerase I)

SMILES: CCC1(O)C(=O)OCc2c1cc1n(c2=O)Cc2c-1nc1cc3c(cc1c2CN(C)C)OCO3 (racemic) [Example 1]
IC50 (topoisomerase Type I; read-out: Relative IC50 (concentration at which 50% of the DNA substrate has been captured by topoisomerase I), Cleavable Complex Assay): < 500 nM

SMILES: CCC1(O)C(=O)OCc2c1cc1n(c2=O)Cc2c-1nc1cc3c(cc1c2CN1CCOCC1)OCCO3 (racemic) [Example 5, 7-Morpholinomethylene-10,11-ethylenedioxy-20(R,S)-camptothecin]
IC50 (topoisomerase Type I): < 500 nM

SMILES: CCC1(O)C(=O)OCc2c1cc1n(c2=O)Cc2c-1nc1cc3c(cc1c2CN1CCCC1)OCCO3 (racemic) [Example 7, 7-Pyrrolidinomethylene-10,11-ethylenedioxy-20(R,S)-camptothecin]
IC50 (topoisomerase Type I): 1000 to 2000 nM

SMILES: CCC1(O)C(=O)OCc2c1cc1n(c2=O)Cc2c-1nc1cc3c(cc1c2CN1CCCCC1)OCO3 (racemic) [Example 8, 7-Piperidinomethylene-10,11-methylenedioxy-20(R,S)-camptothecin]
IC50 (topoisomerase Type I): > 2000 nM

SMILES: CCC1(O)C(=O)OCc2c1cc1n(c2=O)Cc2c-1nc1cc3c(cc1c2CN1CCCCC1)OCCO3 (racemic) [Example 9, 7-Piperidinomethylene-10, 11-ethylenedioxy-20(R,S)-camptothecin]
IC50 (topoisomerase Type I): 500 to 1000 nM

IC50 (topoisomerase Type I; [3]): 500 to 1000 nM
SMILES: CCC1(O)C(=O)OCc2c1cc1n(c2=O)Cc2c-1nc1cc3c(cc1c2CN1CCN(C)CC1)OCCO3 (racemic) [Example 10, 7-(4-methylpiperazinomethylene)-10, 11-ethylenedioxy-20(R,S)-camptothecin]

SMILES: CCN(CC)Cc1c2c(nc3cc4c(cc13)OCCO4)-c1cc3c(c(=O)n1C2)COC(=O)C3(O)CC (racemic) [Example 13, 7-Diethylaminomethylene-10, 11-ethylenedioxy-20(R,S)-camptothecin]
IC50 (topoisomerase Type I): 500 to 1000 nM

SMILES: CCC1(O)C(=O)OCc2c1cc1n(c2=O)Cc2c-1nc1cc3c(cc1c2CN(C)CCO)OCO3 (racemic) [Example 15, 7-N-Methylethanolaminomethylene-10, 11-methylenedioxy-20(R,S)-camptothecin]
IC50 (topoisomerase Type I): 1000 to 2000 nM

SMILES: CCC1(O)C(=O)OCc2c1cc1n(c2=O)Cc2c-1nc1cc3c(cc1c2CN(C)CCO)OCCO3 (racemic) [Example 16, 7-N-Methylethanolaminomethylene-10, 11-ethylenedioxy-20(R,S)-camptothecin]
IC50 (topoisomerase Type I): 1000 to 2000 nM

SMILES: CCC1(O)C(=O)OCc2c1cc1n(c2=O)Cc2c-1nc1cc3c(cc1c2CN(CCO)CCO)OCCO3 (racemic) [Example 17, 7-Diethanolaminomethylene-10, 11-ethylenedioxy-20(R,S)-camptothecin]
IC50 (topoisomerase Type I): < 500 nM

SMILES: CCC1(O)C(=O)OCc2c1cc1n(c2=O)Cc2c-1nc1cc3c(cc1c2CN1CCC1)OCO3 (racemic) [Example 19, 7-Azetidinomethylene-10, 11-methylenedioxy-20(R,S)-camptothecin]
IC50 (topoisomerase Type I): 1000 to 2000 nM

SMILES: CCC1(O)C(=O)OCc2c1cc1n(c2=O)Cc2cc3cc4c(cc3nc2-1)OCO4 (centres unmarked) [10, 11-methylenedioxycamptothecin]
solubility in water / physiologically compatible, aqueous media [1]: as poor as camptothecin
potency relative to unsubstituted camptothecin [2]: more potent than unsubstituted camptothecin

SMILES: CC[C@@]1(O)C(=O)OCc2c1cc1n(c2=O)Cc2c-1nc1cc3c(cc1c2CN(C)C)OCO3 [Example 2, 7-Dimethylaminomethylene-10, 11-methylenedioxy-20(S)-camptothecin]
IC50 (topoisomerase Type I): < 500 nM
tumor wt day 50 / tumor wt day 14 (HT-29 human colon tumor; 0.8 mg/kg (optimal dose), vehicle b (PBS/DMSO/Tween 80), vehicle control 21.8): 1.8

SMILES: CC[C@@]1(O)C(=O)OCc2c1cc1n(c2=O)Cc2c-1nc1cc3c(cc1c2CN(C)C)OCCO3 [Example 4, 7-Dimethylaminomethylene-10, 11-ethylenedioxy-20(S)-camptothecin]
IC50 (topoisomerase Type I): 500 to 1000 nM
tumor wt day 50 / tumor wt day 14 (HT-29 human colon tumor; 7.0 mg/kg (optimal dose), vehicle a (0.1M acetate buffer, pH 5), vehicle control 20.0): 1.3
tumor wt day 50 / tumor wt day 14 (HT-29 human colon tumor; 7.0 mg/kg (optimal dose), vehicle b (PBS/DMSO/Tween 80), vehicle control 21.8): 1.0
effect on tumor (stasis / regression) (HT-29 human colon tumor): tumor stasis

SMILES: CC[C@@]1(O)C(=O)OCc2c1cc1n(c2=O)Cc2c-1nc1cc3c(cc1c2CN1CCOCC1)OCCO3 [Example 6, 7-Morpholinomethylene-10,11-ethylenedioxy-20(S)-camptothecin]
IC50 (topoisomerase Type I): < 500 nM
tumor wt day 50 / tumor wt day 14 (HT-29 human colon tumor; 1.0 mg/kg (optimal dose), vehicle b (PBS/DMSO/Tween 80), vehicle control 21.8): 1.0
effect on tumor (stasis / regression) (HT-29 human colon tumor): tumor stasis

IC50 (topoisomerase Type I; [3]): < 500 nM
SMILES: CC[C@@]1(O)C(=O)OCc2c1cc1n(c2=O)Cc2c-1nc1cc3c(cc1c2CN1CCN(C)CC1)OCCO3 [Example 11, 7-(4-methylpiperazinomethylene)-10, 11-ethylenedioxy-20(S)-camptothecin]
tumor wt day 50 / tumor wt day 14 (HT-29 human colon tumor; 9.0 mg/kg (optimal dose), vehicle a (0.1M acetate buffer, pH 5), vehicle control 20.0): 0.6
effect on tumor (stasis / regression) (HT-29 human colon tumor): tumor regression

SMILES: CCN(CC)Cc1c2c(nc3cc4c(cc13)OCCO4)-c1cc3c(c(=O)n1C2)COC(=O)[C@]3(O)CC [Example 14, 7-Diethylaminomethylene-10, 11-ethylenedioxy-20(S)-camptothecin]
tumor wt day 50 / tumor wt day 14 (HT-29 human colon tumor; 2.0 mg/kg (optimal dose), vehicle a (0.1M acetate buffer, pH 5), vehicle control 20.0): 2.0

SMILES: CC[C@@]1(O)C(=O)OCc2c1cc1n(c2=O)Cc2c-1nc1cc3c(cc1c2CN1CCC1)OCO3 [Example 20, 7-Azetidinomethylene-10, 11-methylenedioxy-20(S)-camptothecin]
tumor wt day 50 / tumor wt day 14 (HT-29 human colon tumor; 1.5 mg/kg (optimal dose), vehicle a (0.1M acetate buffer, pH 5), vehicle control 20.0): 1.5

SMILES: CC[C@@]1(O)C(=O)OCc2c1cc1n(c2=O)Cc2c-1nc1cc3c(cc1c2CN1CCC1)OCCO3 [Example 22, 7-Azetidinomethylene-10, 11-ethylenedioxy-20(S)-camptothecin]
tumor wt day 50 / tumor wt day 14 (HT-29 human colon tumor; 12.0 mg/kg (optimal dose), vehicle a (0.1M acetate buffer, pH 5), vehicle control 20.0): 1.6

SMILES: CC[C@@]1(O)C(=O)OCc2c1cc1n(c2=O)Cc2c-1nc1cc3c(cc1c2CN1CCN(C)CC1)OCO3 [Example 23, 7-(4-Methylpiperazinomethylene)-10, 11-methylenedioxy-20(S)-camptothecin]
tumor wt day 50 / tumor wt day 14 (HT-29 human colon tumor; 3.0 mg/kg (optimal dose), vehicle a (0.1M acetate buffer, pH 5), vehicle control 20.0): 0.5
effect on tumor (stasis / regression) (HT-29 human colon tumor): tumor regression

SMILES: CC[C@@]1(O)C(=O)OCc2c1cc1n(c2=O)Cc2cc3ccccc3nc2-1 [camptothecin, Camptothecin]
effectiveness in treatment of certain solid tumors (certain solid tumors): effective
effectiveness in treatment of leukemia (L-1210) (leukemia (L-1210)): effective
